The values below are quoted from earlier work in patent US20240216490A1, “Autoantigens Engineered to Suppress Autoimmune Response” (Osprey Biopharmaceuticals, Inc., priority 2022, published 2024).

In this data set the target is T1, Siglec-2 (CD22) (Homo sapiens, UniProt P20273).
T1 sequence (P20273 20-847): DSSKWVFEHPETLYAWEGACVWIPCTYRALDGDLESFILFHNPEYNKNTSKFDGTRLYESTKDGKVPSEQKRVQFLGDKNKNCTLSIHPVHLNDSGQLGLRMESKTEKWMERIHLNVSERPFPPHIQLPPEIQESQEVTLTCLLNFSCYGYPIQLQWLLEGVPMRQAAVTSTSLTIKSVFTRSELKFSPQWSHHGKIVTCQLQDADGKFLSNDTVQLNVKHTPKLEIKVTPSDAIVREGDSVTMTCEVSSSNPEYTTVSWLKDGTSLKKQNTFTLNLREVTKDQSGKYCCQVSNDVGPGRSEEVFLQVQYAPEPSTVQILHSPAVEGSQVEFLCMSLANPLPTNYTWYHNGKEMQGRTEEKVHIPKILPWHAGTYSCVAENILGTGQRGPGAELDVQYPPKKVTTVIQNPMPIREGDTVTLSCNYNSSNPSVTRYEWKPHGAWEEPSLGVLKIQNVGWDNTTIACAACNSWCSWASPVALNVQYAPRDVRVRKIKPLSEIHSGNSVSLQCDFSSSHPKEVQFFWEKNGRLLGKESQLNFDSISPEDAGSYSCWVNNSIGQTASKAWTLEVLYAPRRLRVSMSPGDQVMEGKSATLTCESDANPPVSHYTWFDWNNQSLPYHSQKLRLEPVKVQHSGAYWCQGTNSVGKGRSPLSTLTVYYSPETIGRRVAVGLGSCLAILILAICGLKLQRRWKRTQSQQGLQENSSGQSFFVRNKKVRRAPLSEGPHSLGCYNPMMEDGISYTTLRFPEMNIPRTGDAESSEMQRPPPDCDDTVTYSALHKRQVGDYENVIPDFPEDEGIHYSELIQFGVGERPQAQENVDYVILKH
Particulars: value from cited reference; cited from earlier work.
What is called IC50 is the concentration that inhibits the measured activity by half. As to `COc1ccc(OC2OC(COC3(C(=O)O)CC(O)C(NC(=O)CO)C(C(O)C(O)CNCc4ccc(-c5ccc(O)cc5)cc4)O3)C(O)C(O)C2O)cc1` (centres unmarked), the IC50 was 240 nM. On to `O=C(Cc1ccc(-c2ccc(O)cc2)cc1)NCC(O)C(O)C1OC(OCc2ccccc2)(C(=O)O)CC(O)C1NC(=O)CO` (centres unmarked), for which the IC50 is 100 nM. As to `COC1(C(=O)O)CC(NS(=O)(=O)c2ccc(C)cc2)C(NC(C)=O)C(C(O)C(O)CNC(=O)c2ccc(-c3ccccc3)cc2)O1` (centres unmarked), the IC50 is 150 nM. Turning to `CO[C@]1(C(=O)O)CC(O)[C@@H](NC(C)=O)C([C@H](O)[C@H](O)CNC(=O)c2ccc(-c3ccccc3)cc2)O1` (some centres unmarked), the IC50 is 4000 nM. For `O=C(Cc1ccc(-c2ccc(O)cc2)cc1)NC[C@@H](O)C(O)C1O[C@@](OCc2cccc(Cl)c2Cl)(C(=O)O)CC(O)[C@H]1NS(=O)(=O)c1ccccc1[N+](=O)[O-]` (some centres unmarked), the IC50 was 60 nM.
